Structures can show the parent of a compound that is named as a salt.
Legend:
Experiment in all cases: NCI screening panel, growth %
Type in all cases: cell-based, human
MOLT-4 = details: Leukemia
Description: (§1) After 24 h, two plates of each cell line are fixed in situ with TCA, to represent a measurement of the cell population for each cell line at the time of drug addition (Tz). Experimental drugs are solubilised in dimethyl sulfoxide at 400-fold the desired final maximum test concentration and stored frozen prior to use. At the time of drug addition, an aliquot of frozen concentrate is thawed and diluted to twice the desired final maximum test concentration with complete medium containing 50 μg/ml gentamicin. Additional four, 10-fold or log serial dilutions are made to provide a total of five drug concentrations plus control. Aliquots of 100 μl of these different drug dilutions are added to the appropriate microtiter wells already containing 100 μl of medium, resulting in the required final drug concentrations.
(§2) Following drug addition, the plates are incubated for an additional 48 h at 37° C., 5% CO2, 95% air, and 100% relative humidity. For adherent cells, the assay is terminated by the addition of cold TCA (trichloroacetic acid). Cells are fixed in situ by the gentle addition of 50 μl of cold 50% (w/v) TCA (final concentration, 10% TCA) and incubated for 60 minutes at 4° C. The supernatant is discarded, and the plates are washed five times with tap water and air dried. Sulforhodamine B (SRB) solution (100 μl) at 0.4% (w/v) in 1% acetic acid is added to each well, and plates are incubated for 10 minutes at room temperature. After staining, unbound dye is removed by washing five times with 1% acetic acid and the plates are air dried. Bound stain is subsequently solubilised with 10 mM trizma base, and the absorbance is read on an automated plate reader at a wavelength of 515 nm. For suspension cells, the methodology is the same except that the assay is terminated by fixing settled cells at the bottom of the wells by gently adding 50 μl of 80% TCA (final concentration, 16% TCA). Using the seven absorbance measurements [time zero, […], control growth, (C), and test growth in the presence of drug at the five concentration levels (Ti)], the percentage growth is calculated at each of the drug concentration levels. Percentage growth inhibition is calculated as: [(Ti−Tz)/(C−Tz)]×100 for concentrations in which Ti>/=Tz and [(Ti−Tz)/Tz]×100 for concentrations in which Ti<Tz.
(§3) Three dose response parameters are calculated for each experimental agent. […] The drug concentration resulting in total growth inhibition (TGI) is calculated from Ti=Tz. […] Values are calculated for each of these three parameters if the level of activity is reached. However, if the effect is not reached or is exceeded, the value for that parameter is expressed as greater or less than the maximum or minimum concentration tested.

SF-295 = details: CNS
Description: as §1, §2, §3

SN12C = details: Renal
Description: as §1, §2, §3

A498 = details: Renal
Description: as §1, §2, §3

OVCAR-4 = details: Ovarian
Description: as §1, §2, §3

ACHN = details: Renal
Description: as §1, §2, §3

OVCAR-5 = details: Ovarian
Description: as §1, §2, §3

LOX IMVI = details: Melanoma
Description: as §1, §2, §3

CCRF-CEM = details: Leukemia
Description: as §1, §2, §3

PC-3 = details: Prostate
Description: as §1, §2, §3

SNB-75 = details: CNS
Description: as §1, §2, §3

HS 578T = details: Breast
Description: as §1, §2, §3

HOP-92 = details: NSCLC
Description: as §1, §2, §3

U251 = details: CNS
Description: as §1, §2, §3

MDA-MB-468 = details: Breast
Description: as §1, §2, §3

NCI-H322M = details: NSCLC
Description: as §1, §2, §3

SR = details: Leukemia
Description: as §1, §2, §3

DU-145 = details: Prostate
Description: as §1, §2, §3

KM12 = details: Colon
Description: as §1, §2, §3

COLO 205 = details: Colon
Description: as §1, §2, §3

OVCAR-8 = details: Ovarian
Description: as §1, §2, §3

SF-539 = details: CNS
Description: as §1, §2, §3

MDA-MB-231/ATCC = details: Breast
Description: as §1, §2, §3

SNB-19 = details: CNS
Description: as §1, §2, §3

M14 = details: Melanoma
Description: as §1, §2, §3

RXF 393 = details: Renal
Description: as §1, §2, §3

NCI-H226 = details: NSCLC
Description: as §1, §2, §3

Fc1ccc(Nc2ncnc3cc(OCCOC(F)F)c(OCCOC(F)F)cc23)c(F)c1Cl [Compound 2D•HCl, N-(3-chloro-2,4-difluoro-phenyl)-6,7-bis[2-(difluoromethoxy)ethoxy]quinazolin-4-amine]
Growth % (MOLT-4): 55.03%
Growth % (SF-295): 76.73%
Growth % (SN12C): 59.26%
Growth % (A498): 13.11%
Growth % (OVCAR-4): 0.00%
Growth % (ACHN): 17.88%
Growth % (OVCAR-5): 26.63%
Growth % (LOX IMVI): 52.34%
Growth % (CCRF-CEM): 75.53%
Growth % (PC-3): 65.70%
Growth % (SNB-75): 57.99%
Growth % (HS 578T): 68.48%
Growth % (HOP-92): 39.43%
Growth % (U251): 72.65%
Growth % (MDA-MB-468): −39.62%
Growth % (NCI-H322M): −7.70%
Growth % (SR): 75.96%
Growth % (DU-145): 35.29%
Growth % (KM12): 85.84%
Growth % (COLO 205): 77.41%
Growth % (OVCAR-8): 69.11%
Growth % (SF-539): 73.76%
Growth % (MDA-MB-231/ATCC): 65.62%
Growth % (SNB-19): 75.78%
Growth % (M14): 59.47%
Growth % (RXF 393): 37.95%
Growth % (NCI-H226): 84.65%
